{"source": "paper PMC10795032", "about": "(ACS Omega, 2024)", "type_in_all_cases": "cell-based, human", "key": {"p62/SQSTM1": {"test_system": "p62/SQSTM1", "test": "Western blot, autophagic flux marker p62/SQSTM1", "details": "U87-MG, 5 μM, 24 h"}, "U87-MG cells [1]": {"test_system": "U87-MG cells", "test": "Annexin V-FITC/PI flow cytometry apoptosis assay", "details": "5 μM, 24 h"}, "p-mTOR": {"test_system": "p-mTOR", "test": "Western blot, phosphorylation of mTOR", "details": "U87-MG, 5 μM, 24 h"}, "cleaved caspase-3": {"test_system": "cleaved caspase-3", "test": "Western blot, cleaved caspase-3", "details": "U87-MG, 5 μM, 24 h"}, "pAKT": {"test_system": "pAKT", "test": "Western blot, phosphorylation of AKT", "details": "U87-MG, 5 μM, 24 h"}, "U87-MG cells [2]": {"test_system": "U87-MG cells", "details": "5 μM with 20 μM CQ, 24 h, CCK-8"}, "LC3": {"test_system": "LC3", "test": "Western blot, LC3-I to LC3-II conversion", "details": "U87-MG, 24 h"}}, "data": [{"compound": "COc1cc2ncnc(Nc3ccc(F)c(Cl)c3)c2cc1OCCCN1CCOCC1", "note": "[Gefitinib]", "values": [{"measurement": "expression of p62", "setting": "p62/SQSTM1", "result": "partially downregulate"}, {"measurement": "apoptosis rate (Annexin-V-positive cells)", "setting": "U87-MG cells [1]", "result": 44.16, "unit": "%"}, {"measurement": "phosphorylation of mTOR", "setting": "p-mTOR", "result": "potent in inhibiting"}, {"measurement": "cleaved caspase-3 expression", "setting": "cleaved caspase-3", "result": "cleaved caspase-3 expression can be seen"}, {"measurement": "phosphorylation of AKT", "setting": "pAKT", "result": "potent in inhibiting"}, {"measurement": "increase in cell death along with CQ compared with treated alone", "setting": "U87-MG cells [2]", "result": 2.09, "unit": "%"}, {"measurement": "conversion of LC3-II on co-incubation with CQ", "setting": "LC3; 5 μM with 20 μM CQ", "result": "significantly increases"}, {"measurement": "conversion of LC3-I to LC3-II", "setting": "LC3; 5 μM", "result": "able to induce autophagy"}]}]}
